Test results reported in publication PMC3021963 (ChemMedChem, 2010).

target: T1, MbtI (Mycobacterium tuberculosis, UniProt P9WFX1); assay: not given; type: biochemical; conditions: not given
T1 sequence (P9WFX1 whole entry, looked up): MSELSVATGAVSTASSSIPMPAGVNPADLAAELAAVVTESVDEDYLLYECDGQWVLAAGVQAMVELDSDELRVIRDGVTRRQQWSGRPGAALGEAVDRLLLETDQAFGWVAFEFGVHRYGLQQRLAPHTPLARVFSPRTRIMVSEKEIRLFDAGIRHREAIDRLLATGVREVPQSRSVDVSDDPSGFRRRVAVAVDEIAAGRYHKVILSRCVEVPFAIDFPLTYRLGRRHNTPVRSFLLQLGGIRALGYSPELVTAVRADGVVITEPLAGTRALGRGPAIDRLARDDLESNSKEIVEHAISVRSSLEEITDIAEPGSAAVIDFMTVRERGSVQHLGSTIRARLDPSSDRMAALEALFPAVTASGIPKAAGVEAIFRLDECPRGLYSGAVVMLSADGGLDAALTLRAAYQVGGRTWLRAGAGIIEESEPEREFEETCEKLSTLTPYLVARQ

Structure (SMILES)	Ki
CC(=O)n1c(=S)[nH]c2ccccc21 [Compound 4, 1-Acetylbenzimidazole-2-thione]	9.7 µM

same assay, conditions: noncompetitive inhibition model

Structure (SMILES)	α value
CC(=O)n1c(=S)[nH]c2ccccc21 [Compound 4, 1-Acetylbenzimidazole-2-thione]	1

same assay, conditions: with respect to chorismate

Structure (SMILES)	mode of inhibition
CC(=O)n1c(=S)[nH]c2ccccc21 [Compound 4, 1-Acetylbenzimidazole-2-thione]	noncompetitive inhibition

target: T1, MbtI; assay: continuous fluorescence assay of MbtI; type: biochemical; conditions: not given

Structure (SMILES)	change in potency relative to parent compound 4	MbtI inhibition (in words)
CC(=O)n1c(=S)oc2ccccc21 [Compound 42, 1-Acetylbenzoxazole-2-thione]	about twofold less potent	
NS(=O)(=O)c1cccc(S(=O)(=O)c2ccc(Cl)cc2)c1 [Compound 26, 3-(4-Chlorophenylsulfonyl)benzenesulfonamide]		complete loss of activity
NS(=O)(=O)c1cccc(S(=O)(=O)c2ccccc2)c1 [Compound 27, 3-(Phenylsulfonyl)benzenesulfonamide]		complete loss of activity
S=c1[nH]c2ccccc2[nH]1 [Compound 34, benzimidazole-2-thione]	six- to nine-fold decreases in potency	
CSc1nc2ccccc2[nH]1 [Compound 46, 2-thiomethylbenzimidazole]		completely inactive
Cn1c(=S)[nH]c2ccccc21 [Compound 40, N-methylbenzimidazole-2-thione]	six- to nine-fold decreases in potency	
CC(=O)N1C(=O)Cc2ccccc21 [Compound 43, 1-Acetyl-2-oxindole]		completely inactive
CC(=O)n1cc[nH]c1=S [Compound 47, 1-Acetylimidazole-2-thione]		abolished all activity
CC(=O)n1c(=O)[nH]c2ccccc21 [Compound 45, 1-Acetylbenzimidazole-2-one]		completely inactive
CC(=O)n1c(=S)[nH]c2cc(C)ccc21 [Compound 41, 1-Acetyl-5/6-methylbenzimidazole-2-thione]	no impact on potency was observed	
CC(=O)n1cnc2ccccc21 [Compound 44, 1-Acetylbenzimidazole]		completely inactive
CC(=O)NS(=O)(=O)c1cccc(S(=O)(=O)c2ccc(Cl)c(Cl)c2)c1 [Compound 32, N-[3-(3,4-Dichlorophenylsulfonyl)phenylsulfonyl]acetamide]		completely inactive

same assay, conditions: IC50, Table 2, class II diarylsulfones

Structure (SMILES)	IC50
NS(=O)(=O)c1cccc(S(=O)(=O)c2ccc(Cl)cc2)c1 [Compound 26, 3-(4-Chlorophenylsulfonyl)benzenesulfonamide]	> 200 µM
NS(=O)(=O)c1cccc(S(=O)(=O)c2ccccc2)c1 [Compound 27, 3-(Phenylsulfonyl)benzenesulfonamide]	> 200 µM
CNS(=O)(=O)c1cccc(S(=O)(=O)c2ccccc2)c1 [Compound 28, N-Methyl-3-(phenylsulfonyl)benzenesulfonamide]	> 200 µM
CNS(=O)(=O)c1cccc(S(=O)(=O)c2ccc(Cl)c(Cl)c2)c1 [Compound 29, 3-(3,4-Dichlorophenylsulfonyl)-N-methylbenzenesulfonamide]	> 200 µM
NS(=O)(=O)c1cccc(S(=O)(=O)c2ccc(Cl)c(Cl)c2)c1 [Compound 8, 3-(3,4-Dichlorophenylsulfonyl)benzenesulfonamide]	35 µM
O=S(=O)(NCc1ccccc1)c1cccc(S(=O)(=O)c2ccc(Cl)c(Cl)c2)c1 [Compound 30, N-Benzyl-3-(3,4-dichlorophenylsulfonyl)benzenesulfonamide]	> 200 µM
Nc1ccc(S(=O)(=O)c2ccc(N)cc2)cc1 [Compound 33, 4,4′-diaminodiphenylsulfone, reference compound]	118 ± 19 µM
CC(=O)NS(=O)(=O)c1cccc(S(=O)(=O)c2ccc(Cl)c(Cl)c2)c1 [Compound 32, N-[3-(3,4-Dichlorophenylsulfonyl)phenylsulfonyl]acetamide]	> 200 µM

same assay, conditions: Table 1; Hill slope of concentration-response plot

Structure (SMILES)	Fluorescence Assay Hill
NS(=O)(=O)c1cccc(S(=O)(=O)c2ccc(Cl)c(Cl)c2)c1 [Compound 8, 3-(3,4-Dichlorophenylsulfonyl)benzenesulfonamide]	0.85
CC(=O)n1c(=S)[nH]c2ccccc21 [Compound 4, 1-Acetylbenzimidazole-2-thione]	1.71

same assay, conditions: Table 2, class II diarylsulfones

Structure (SMILES)	Hill Slope	IC50
NS(=O)(=O)c1cccc(S(=O)(=O)c2ccc(Cl)c(Cl)c2)c1 [Compound 8, 3-(3,4-Dichlorophenylsulfonyl)benzenesulfonamide]	0.85	
O=S(=O)(c1cccc(S(=O)(=O)N2CCOCC2)c1)c1ccc(Cl)c(Cl)c1 [Compound 31, N-[3-(3,4-Dichlorophenylsulfonyl)phenylsulfonyl]morpholine]		> 200 µM

same assay, conditions: Table 3, class III benzimidazole-2-thiones

Structure (SMILES)	Hill Slope
CC(=O)n1c(=S)oc2ccccc21 [Compound 42, 1-Acetylbenzoxazole-2-thione]	1.10
S=c1[nH]c2ccccc2[nH]1 [Compound 34, benzimidazole-2-thione]	0.90
Cn1c(=S)[nH]c2ccccc21 [Compound 40, N-methylbenzimidazole-2-thione]	1.20
CC(=O)n1c(=S)[nH]c2cc(C)ccc21 [Compound 41, 1-Acetyl-5/6-methylbenzimidazole-2-thione]	1.20
CC(=O)n1c(=S)[nH]c2ccccc21 [Compound 4, 1-Acetylbenzimidazole-2-thione]	1.00

same assay, conditions: Table 3, class III benzimidazole-2-thiones; synthetically prepared compounds

Structure (SMILES)	IC50
CC(=O)n1c(=S)oc2ccccc21 [Compound 42, 1-Acetylbenzoxazole-2-thione]	21.8 ± 1.4 µM
CSc1nc2ccccc2[nH]1 [Compound 46, 2-thiomethylbenzimidazole]	> 200 µM
CC(=O)n1c(=S)[nH]c2cc(C)ccc21 [Compound 41, 1-Acetyl-5/6-methylbenzimidazole-2-thione]	7.6 ± 0.4 µM

target: T1, MbtI; assay: HPLC end-point assay of MbtI; type: biochemical; conditions: not given

Structure (SMILES)	IC50
NS(=O)(=O)c1cccc(S(=O)(=O)c2ccc(Cl)c(Cl)c2)c1 [Compound 8, 3-(3,4-Dichlorophenylsulfonyl)benzenesulfonamide]	49.2 ± 11.6 µM
CC(=O)n1c(=S)[nH]c2ccccc21 [Compound 4, 1-Acetylbenzimidazole-2-thione]	5.16 ± 0.49 µM

same assay, conditions: Table 1; Hill slope of concentration-response plot

Structure (SMILES)	HPLC Assay Hill
NS(=O)(=O)c1cccc(S(=O)(=O)c2ccc(Cl)c(Cl)c2)c1 [Compound 8, 3-(3,4-Dichlorophenylsulfonyl)benzenesulfonamide]	0.7
CC(=O)n1c(=S)[nH]c2ccccc21 [Compound 4, 1-Acetylbenzimidazole-2-thione]	1.23
